Data from patent US8883963B2 (Cadila Healthcare Limited, priority 2007, dated 2014).

Legend:
[1] = system: RIN5F (Rat Insulinoma) cells; assay: In vitro glucose-dependent insulin secretion (RIN5F cell assay screening protocol); type: cell-based; conditions: 16.7 mM glucose load
Human GLP-1 receptor = biological target: T1, Human GLP-1 receptor (Homo sapiens, UniProt P43220); assay: In vitro Human GLP-1 R agonist activity (cyclic AMP determination) in CHO/human GLP1R cells; type: cell-based
T1 construct: The full-length cDNA was cloned in pcDNA3.1(+); expressed in transfected cells

human glucagon receptor = biological target: T2, human glucagon receptor (Homo sapiens, UniProt P47871); assay: In vitro human glucagon antagonist activity (inhibition of cAMP production) in CHO/human glucagon R cells; type: cell-based; conditions: with saturated concentration of glucagon peptide
T2 construct: The full-length cDNA was cloned in pcDNA3.1 (Invitrogen); expressed in transfected cells

DPP IV = DPP IV (Homo sapiens, UniProt P27487); assay: Stability against DPP IV enzyme; type: in vitro ADME; conditions: 37° C.; for % degradation of peptidomimetics in 24 h when incubated with DPP-IV enzyme: 2 μM peptidomimetic; for half-life at 2 μM: DPP IV enzyme, pH 7.8, 2 μM peptidomimetic, read-out: half-life (t1/2) when incubated with DPP-IV enzyme
Method: (§1) Reactions were terminated by the addition of TFA/H2O (15 mL, 10% (v/v)). […] The column was equilibrated with TFA/H20, at a flow rate of 1 mL/min.

[2] = Stability in human plasma; type: in vitro ADME; conditions: 2 μM peptidomimetic, pooled human plasma, 37° C.; for half-life at 2 μM: pH 7.8, read-out: half-life (t1/2) when incubated with human plasma
Method: as §1

[3] = Stability in simulated gastric fluid; type: in vitro ADME; conditions: 2 μM peptidomimetic, simulated gastric fluid pH 1.5, 37° C.; for half-life at 2 μM: read-out: half-life (t1/2) when incubated with simulated gastric fluid
Method: as §1

[4] = Stability in simulated intestinal fluid; type: in vitro ADME; conditions: 2 μM peptidomimetic, simulated intestinal fluid pH 7.5, 37° C.; for half-life at 2 μM: read-out: half-life (t1/2) when incubated with simulated intestinal fluid
Method: as §1

[5] = Stability in liver microsomes; type: in vitro ADME; conditions: 2 μM peptidomimetic, human liver microsomes, 37° C.; for half-life at 2 μM: pH 7.8, read-out: half-life (t1/2) when incubated with liver microsomes
Method: as §1

T1 sequence (P43220 24-463): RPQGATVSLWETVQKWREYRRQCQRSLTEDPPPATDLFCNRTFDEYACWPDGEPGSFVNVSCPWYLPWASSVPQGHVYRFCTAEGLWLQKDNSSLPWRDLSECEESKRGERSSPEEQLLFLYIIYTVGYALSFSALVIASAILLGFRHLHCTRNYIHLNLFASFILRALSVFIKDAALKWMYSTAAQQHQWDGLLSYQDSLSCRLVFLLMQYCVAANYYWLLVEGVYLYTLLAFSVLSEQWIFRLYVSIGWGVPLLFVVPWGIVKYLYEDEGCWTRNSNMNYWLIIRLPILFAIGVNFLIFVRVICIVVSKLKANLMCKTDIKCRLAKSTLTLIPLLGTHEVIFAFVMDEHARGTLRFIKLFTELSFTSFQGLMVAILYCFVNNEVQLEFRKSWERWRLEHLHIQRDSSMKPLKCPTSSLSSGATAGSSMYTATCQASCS
T2 sequence (P47871 26-477): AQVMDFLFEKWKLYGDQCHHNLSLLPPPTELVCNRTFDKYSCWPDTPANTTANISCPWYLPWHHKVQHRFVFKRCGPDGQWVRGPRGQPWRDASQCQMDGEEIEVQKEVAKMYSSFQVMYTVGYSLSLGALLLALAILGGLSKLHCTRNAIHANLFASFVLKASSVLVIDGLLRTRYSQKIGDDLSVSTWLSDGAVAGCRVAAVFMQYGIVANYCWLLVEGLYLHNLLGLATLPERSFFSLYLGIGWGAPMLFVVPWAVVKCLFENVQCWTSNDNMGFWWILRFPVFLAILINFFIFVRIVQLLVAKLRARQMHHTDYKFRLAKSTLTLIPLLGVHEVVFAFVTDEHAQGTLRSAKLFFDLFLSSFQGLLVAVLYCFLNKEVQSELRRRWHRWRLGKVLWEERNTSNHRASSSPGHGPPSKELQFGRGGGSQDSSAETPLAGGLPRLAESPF
DPP IV, sequence (P27487 whole entry, species assumed): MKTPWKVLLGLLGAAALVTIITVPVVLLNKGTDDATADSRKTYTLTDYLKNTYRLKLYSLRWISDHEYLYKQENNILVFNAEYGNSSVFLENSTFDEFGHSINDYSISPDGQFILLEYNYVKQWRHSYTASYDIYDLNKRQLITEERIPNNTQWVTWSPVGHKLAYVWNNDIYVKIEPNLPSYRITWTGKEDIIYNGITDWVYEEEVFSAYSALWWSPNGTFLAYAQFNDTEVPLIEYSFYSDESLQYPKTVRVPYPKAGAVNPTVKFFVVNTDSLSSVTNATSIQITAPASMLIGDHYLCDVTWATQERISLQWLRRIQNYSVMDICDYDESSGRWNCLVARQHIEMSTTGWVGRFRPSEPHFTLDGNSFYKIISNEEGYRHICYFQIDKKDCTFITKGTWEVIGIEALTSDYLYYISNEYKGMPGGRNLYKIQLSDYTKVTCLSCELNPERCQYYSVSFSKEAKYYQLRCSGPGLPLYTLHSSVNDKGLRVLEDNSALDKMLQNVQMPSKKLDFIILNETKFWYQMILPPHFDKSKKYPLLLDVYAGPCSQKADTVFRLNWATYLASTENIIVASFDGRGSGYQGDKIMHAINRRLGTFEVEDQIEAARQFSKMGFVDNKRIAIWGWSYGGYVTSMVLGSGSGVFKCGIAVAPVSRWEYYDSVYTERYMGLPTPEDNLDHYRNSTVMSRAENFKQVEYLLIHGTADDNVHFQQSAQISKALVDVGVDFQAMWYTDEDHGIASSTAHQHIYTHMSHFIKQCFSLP

SMILES | Insulin secretion ([1]; 0.1 nM test compd.) | Insulin secretion ([1]; 1 nM test compd.) | Insulin secretion ([1]; 10 nM test compd.) | Human GLP-1 R activity (cAMP release), % activity with respect to control (Human GLP-1 receptor; 1 nM test compound) | Human GLP-1 R activity (cAMP release), % activity with respect to control (Human GLP-1 receptor; 10 nM test compound) | Human GLP-1 R activity (cAMP release), % activity with respect to control (Human GLP-1 receptor; 100 nM test compound) | Human GLP-1 R activity (cAMP release), % activity with respect to control (Human GLP-1 receptor; 1 μM test compound) | Human GLP-1 R activity (cAMP release), % activity with respect to control (Human GLP-1 receptor; 10 μM test compound) | Human Glucagon receptor antagonistic activity shown as inhibition of cAMP production of Glucagon peptide (human glucagon receptor; 1 nM test compound) | Human Glucagon receptor antagonistic activity shown as inhibition of cAMP production of Glucagon peptide (human glucagon receptor; 10 nM test compound) | Human Glucagon receptor antagonistic activity shown as inhibition of cAMP production of Glucagon peptide (human glucagon receptor; 100 nM test compound) | Human Glucagon receptor antagonistic activity shown as inhibition of cAMP production of Glucagon peptide (human glucagon receptor; 1 μM test compound) | Human Glucagon receptor antagonistic activity shown as inhibition of cAMP production of Glucagon peptide (human glucagon receptor; 10 μM test compound) | % degradation of peptidomimetics in 24 h when incubated with DPP-IV enzyme (DPP IV) | half-life at 2 μM (DPP IV) | % degradation of peptidomimetics in 24 h when incubated with human plasma [2] | half-life at 2 μM [2] | % degradation of peptidomimetics in 24 h when incubated with simulated gastric fluid [3] | half-life at 2 μM [3] | % degradation of peptidomimetics in 24 h when incubated with simulated intestinal fluid [4] | other results
CCc1cc(OC)ccc1-c1ccc(CC(NC(=O)[C@H](CC(=O)O)NC(=O)[C@H](CO)NC(=O)[C@@H](NC(=O)C(C)(Cc2ccccc2F)NC(=O)[C@@H](NC(=O)CNC(=O)C(CCC#N)NC(=O)C(C)(C)NC(=O)[C@@H](N)Cc2c[nH]cn2)[C@H](C)O)[C@H](C)O)C(=O)NC(CCCc2ccccc2)C(N)=O)cc1 (single isomer, unassigned) [compound 114] | 16.6 ± 0.41 pg/µg/h | 22.9 ± 0.32 pg/µg/h | 36.6 ± 0.19 pg/µg/h | 82 ± 0.22% | 87 ± 0.12% | 92 ± 0.14% | 99 ± 0.22% | 99 ± 0.26% | 4 ± 0.02 pmol/ml/μg prt | 2 ± 0.15 pmol/ml/μg prt | 0 pmol/ml/μg prt | 0 pmol/ml/μg prt | 0 pmol/ml/μg prt | 00% | > 1440 min | 00% | > 1440 min | 52% | 240 min | 00% | half-life at 2 μM [4]: > 1440 min; % degradation of peptidomimetics in 24 h when incubated with liver microsomes [5]: 81%; half-life at 2 μM [5]: 120 min
CCc1cc(OC)ccc1-c1ccc(CC(NC(=O)[C@H](CC(=O)O)NC(=O)[C@H](CO)NC(=O)[C@@H](NC(=O)C(C)(Cc2ccccc2F)NC(=O)[C@@H](NC(=O)CNC(=O)C(CCC#N)NC(=O)C(C)(C)NC(=O)[C@@H](N)Cc2c[nH]cn2)[C@H](C)O)[C@H](C)O)C(=O)NC(CCCc2ccccc2F)C(N)=O)cc1 (single isomer, unassigned) [compound 116] | 16.4 ± 0.12 pg/µg/h | 22.7 ± 0.17 pg/µg/h | 36.6 ± 0.05 pg/µg/h | 55 ± 0.16% | 88 ± 0.13% | 92 ± 0.11% | 99 ± 0.07% | 99 ± 0.09% | 2 ± 0.03 pmol/ml/μg prt | 0 pmol/ml/μg prt | 0 pmol/ml/μg prt | 0 pmol/ml/μg prt | 0 pmol/ml/μg prt | 00% | > 1440 min | 00% | > 1440 min | 43% | 240 min | 00% | half-life at 2 μM [4]: > 1440 min; % degradation of peptidomimetics in 24 h when incubated with liver microsomes [5]: 84%; half-life at 2 μM [5]: 120 min
CCc1cc(OC)ccc1-c1ccc(CC(NC(=O)[C@H](CC(=O)O)NC(=O)[C@H](CO)NC(=O)[C@@H](NC(=O)C(C)(Cc2ccccc2F)NC(=O)[C@@H](NC(=O)CNC(=O)C(CCC#N)NC(=O)C(C)(C)NC(=O)[C@@H](N)Cc2c[nH]cn2)[C@@H](C)O)[C@H](C)O)C(=O)NC(CCCc2ccccc2F)C(N)=O)cc1 (single isomer, unassigned) [compound 120] | 16.3 ± 0.15 pg/µg/h | 22.4 ± 0.21 pg/µg/h | 36.2 ± 0.11 pg/µg/h | 99 ± 0.12% | 99 ± 0.15% | 99 ± 0.18% | 99 ± 0.03% | 99 ± 0.09% | 0 pmol/ml/μg prt | 0 pmol/ml/μg prt | 0 pmol/ml/μg prt | 0 pmol/ml/μg prt | 0 pmol/ml/μg prt | 00% | > 1440 min | 00% | > 1440 min | 41% | 240 min | 00% | half-life at 2 μM [4]: > 1440 min; % degradation of peptidomimetics in 24 h when incubated with liver microsomes [5]: 80%; half-life at 2 μM [5]: 120 min
